Consider 1 compound from patent US12337005B2, “Methods of treating thrombosis” (UNIVERSITY OF IOWA RESEARCH FOUNDATION, priority 2020, dated 2025).

Type in all cases: cell-based
Data set [1] concerns the target T1, PKM2 dimers (Mus musculus, UniProt P52480).
T1 construct: PKM2 dimer and tetramer expression in platelets pre-treated with vehicle or ML265; endogenous in cells; host or cells: mouse platelets
The data set is described as follows: Native Western blot of PKM2 dimer and tetramer in stimulated mouse platelets. Particulars: mouse platelets stimulated with convulxin or thrombin. On the procedure: Mouse platelets were prepared. Blood from anesthetized mice was drawn from the retro-orbital plexus and collected in 1.5 mL polypropylene tubes containing 300 μL of enoxaparin (0.3 mg/mL; Sanofi-Aventis, US LLC). The blood was centrifuged at 100 g for 5 minutes, and the platelet-rich plasma (PRP) was collected in a fresh tube. To prevent platelet activation, PRP was incubated with PGI2 (2 μg/mL) at 37° C. for 5 minutes. PRP was further centrifuged at 600 g for 5 minutes. The obtained pellets were suspended in 1 mL modified Tyrode-N-2-hydroxyethylpiperazine-N′-2-ethane sulfonic acid (HEPES) buffer (137 mM NaCl, 0.3 mM Na2HPO4, 2 mM KCl, 12 mM NaHCO3, 5 mM N-2-hydroxyethylpiperazine-N′-2-ethane sulfonic acid, 5 mM glucose, 0.35% bovine serum albumin, pH 7.2). The washing step was repeated twice with Tyrode's to remove PGI2, and platelets were fluorescently labeled with calcein green (wherever required), AM (2.5 μg/mL; Molecular Probes) for 10 minutes at 37° C.
Platelet proteins were separated on 4-20% SDS-PAGE (sodium dodecyl sulfate-polyacrylamide gel electrophoresis) gradient gels and electrophoretic transferred to PVDF (polyvinylidene fluoride) membrane by using Bio-Rad western blotting system. For PKM2 dimer and tetramer study 6% native gels are used. […] Blots were developed using enhanced chemiluminescence and quantified using Image J software from NIH (Bethesda, MD, USA).
Background: In western blotting, separated proteins are transferred to a membrane and probed.

In data set [2] the test system is human platelets. The data set is described as follows: Metabolomic analysis of human platelets. How it is done:
Human washed platelets (3×10^8 cells in 300 μl) were treated with ML265 (100 μM) or DMSO for 10 mins and stimulated by convulxin for 10 minutes. Cells were then fixed by adding 80% methanol and sent to Metabolon Inc. (Morrisville, NC, USA) for metabolomic analysis. Briefly, samples were homogenized and subjected to methanol extraction then split into aliquots for analysis by ultra-high-performance liquid chromatography/mass spectrometry (UHPLC/MS) in the positive (two methods) and negative (two methods) mode. Metabolites were then identified by automated comparison of ion features to a reference library of chemical standards followed by visual inspection for quality control as previously described (Dehaven et al., 2010). Metaboanalyst 4.0 feature PatternHunter was used for finding the metabolites showing correlation (≥0.5) with specific trends (Xia et al., 2009). The metabolites obtained after PatternHunter analysis have been represented as a heatmap. Furthermore, to understand the functional role of the changes in concentration of these metabolites, the pathway analysis was performed using Metaboanalyst 4.0. The Global Ancova and Relative-betweenness Centrality topological measures were used to identify the highly impacted pathways with KEGG human metabolic library as the reference. The False Discovery Rate corrected pathway terms with P≤0.05 were considered significant.

The subject of data set [3] is human platelets. The data set is described as follows: In vitro platelet aggregation, human platelet-rich plasma. Particulars: convulxin, collagen, TRAP and ADP, ML265 50 and 100 μM. On the procedure: (§1) Platelet rich plasma (PRP) or washed platelets (2×10^8/ml) treated with vehicle (DMSO) or ML265 (50 and 100 μM) were stirred (1200 rpm) at 37° C. for 2 min in a whole blood/optical lumi-aggregometer (Chrono-log; model 700-2) before the addition of agonists (convulxin, collagen, thrombin, PAR4, TRAP (PAR1 agonist) or adenosine diphosphate [ADP]). Aggregation was measured as percent change in light transmission, where 100% refers to transmittance through the blank sample (PRP/Buffer). Platelet dense granule secretion was determined by measuring the release of ATP using luciferin-luciferase reagent. To examine the effect of ML265 on ATP secretion, washed platelets were pretreated with vehicle (DMSO) or ML265 (50 and 100 μM) for 10 minutes before stimulation with various agonists. ATP release was performed in a lumi-aggregometer (Chrono-log; model 700-2) at 37° C.

In data set [4] the test system is mouse platelets. The data set is described as follows: Annexin V-affinity assay, mouse platelets. Particulars: increasing concentrations of ML265. On the procedure: Mouse and human washed platelets (1×10^8/ml) were pre-incubated with different concentrations of ML265 ([…]). Washed platelets activated with thrombin (0.5 U/ml)+convulxin (100 ng/ml) were used as a positive control. The samples were added to 1× Annexin V-binding buffer (BD Biosciences). Following this, annexin V-FITC antibody was added to each sample, gently mixed, and incubated at room temperature for 15 minutes in the dark. After incubation, 1× Annexin-binding buffer was added to each tube and analyzed by a Becton Dickinson FACSCalibur flow cytometer.

Data set [5] concerns integrin αIIbβ3. Nature of the data set: Integrin αIIbβ3 activation (PAC-1 binding), human platelets. Conditions: convulxin or TRAP-induced.
Data set [6] relates to integrin αIIbβ3. The data set is described as follows: Integrin αIIbβ3 activation (JONA binding), mouse platelets. Particulars: convulxin and PAR4-induced.
Data set [7] concerns murine platelets. The data set is described as follows: ATP secretion from dense granules, mouse platelets. Conditions: stimulus-activated mouse platelets pretreated with ML265. How it is done: as §1
Data set [8] deals with human platelets. The data set is described as follows: Clot retraction, human platelet-rich plasma. Conditions: thrombin stimulation, ML265 50 and 100 μM, dose-dependent. On the procedure:
To measure thrombin-stimulated fibrin clot retraction PRP was treated with ML265 (50 and 100 μM) or vehicle control (DMSO) for 10 minutes. Tyrode buffer was added to test tubes, along with red blood cells, to allow visualization of the clot. This was followed by the addition of PRP. Clot formation was initiated by adding thrombin (final concentration 0.25 U/ml) to the test tubes. Photographs were taken every 15 minutes and the assay was terminated after 60 minutes at which time the clot in the vehicle-treated samples were seen to have retracted completely. Clot area was analyzed using Image J software from NIH (Bethesda, MD, USA).

The mark [9] stands for this setting: ML265 100 μM, convulxin-stimulated human platelets.

T1 sequence (P52480 2-531 limits assumed): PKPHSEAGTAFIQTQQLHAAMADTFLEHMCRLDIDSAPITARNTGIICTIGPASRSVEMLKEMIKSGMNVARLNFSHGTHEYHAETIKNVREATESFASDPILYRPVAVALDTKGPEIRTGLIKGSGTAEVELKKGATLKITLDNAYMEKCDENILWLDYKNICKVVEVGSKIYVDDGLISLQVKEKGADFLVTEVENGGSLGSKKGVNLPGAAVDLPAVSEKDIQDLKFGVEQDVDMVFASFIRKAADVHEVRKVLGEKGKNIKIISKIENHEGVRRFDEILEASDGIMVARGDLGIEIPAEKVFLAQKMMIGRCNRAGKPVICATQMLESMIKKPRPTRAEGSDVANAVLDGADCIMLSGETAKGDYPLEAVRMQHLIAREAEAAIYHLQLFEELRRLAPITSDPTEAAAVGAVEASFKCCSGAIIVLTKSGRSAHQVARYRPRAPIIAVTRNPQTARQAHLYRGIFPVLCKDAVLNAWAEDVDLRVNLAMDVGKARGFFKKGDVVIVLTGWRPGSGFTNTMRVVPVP

Regarding `Cn1c2cc([S+](C)[O-])sc2c2cnn(Cc3cccc(N)c3)c(=O)c21` (stereo not shown) [ML265, 6-[(3-aminophenyl)methyl]-4,6-dihydro-4-methyl-2-(methylsulfinyl)-5H-thieno[2′,3′:4,5]pyrrolo[2,3-d]pyridazine-5-one], in data set [1], the PKM2 dimer formation entry is “limited”. Also, in data set [2] (setting [9]), the “levels of arachidonic acid and 12-HETE” value is “altered”; the “metabolites in the glycolytic pathway, including glucose uptake and lactate production” value is on record as “altered”. Besides, the “level of free fatty acids and palmitate” value in data set [2] (ML265 100 μM, human platelets) is reported as “altered”. For the same compound, the palmitate result in data set [2] (ML265 pre-treated activated human platelets compared to control) is “downregulated”. Also, the arachidonate level result in data set [2] (convulxin-stimulated human platelets pre-treated with ML265, vs convulxin alone) is on record as “further decrease”. Moreover, the glycerophospholipid metabolism result in data set [2] (pre-treatment of human platelets with ML265) is recorded as “downregulated”. In data set [3], the stimulus-dependent platelet aggregation entry is “reduced”. Further, in data set [4], the “apoptosis in resting platelets (Annexin V binding)” value is reported as “does not induce”. Besides, the “activation of αIIbβ3 (PAC-1 binding)” value in data set [5] was “decreased”. The “activation of αIIbβ3 (JONA binding)” value in data set [6] is given as “decreased”. For the same compound, the “dense-granule secretion (ATP release)” value in data set [7] is listed as “significant decrease”. Also, in data set [8], the clot retraction entry was “significantly inhibited”.
